Active and inactive are the calls of the source. No cut-off for these calls is given here.
Legend:
[1] = target: T1, Cathepsin K (Homo sapiens) (UniProt P43235); experiment: Inhibition of cathepsin K (unknown origin) at 100 nM relative to control
T1 sequence (whole entry): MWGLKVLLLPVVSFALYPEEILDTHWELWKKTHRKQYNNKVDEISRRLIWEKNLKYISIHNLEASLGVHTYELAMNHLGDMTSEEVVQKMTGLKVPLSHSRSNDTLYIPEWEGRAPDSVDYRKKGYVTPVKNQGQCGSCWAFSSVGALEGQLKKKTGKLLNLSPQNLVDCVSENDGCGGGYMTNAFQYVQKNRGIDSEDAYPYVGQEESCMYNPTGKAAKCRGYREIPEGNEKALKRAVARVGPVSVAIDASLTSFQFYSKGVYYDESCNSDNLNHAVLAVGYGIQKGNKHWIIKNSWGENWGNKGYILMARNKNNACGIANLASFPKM

[2] = target: Prothrombin (Homo sapiens) (UniProt P00734); experiment: Inhibition of thrombin (unknown origin) at 100 nM relative to control
[3] = Drug uptake in ip dosed mouse plasma by LC-MS/MS analysis; assay type: ADME, organism-based; settings: in vivo
Legumain (Homo sapiens) = Legumain (Homo sapiens) (UniProt Q99538); experiment: Inhibition of legumain (unknown origin) at 10 uM
[4] = target: Kallikrein-2 (Homo sapiens) (UniProt P20151); experiment: Inhibition of KLK2 (unknown origin) at 10 uM
[5] = target: Cathepsin B (Homo sapiens) (UniProt P07858); experiment: Inhibition of cathepsin B (unknown origin) at 10 uM relative to control
Caspase-2 (Homo sapiens) = Caspase-2 (Homo sapiens) (UniProt P42575); experiment: Inhibition of caspase-2 (unknown origin) at 10 uM
[6] = target: Prothrombin (Homo sapiens) (UniProt P00734); experiment: Inhibition of thrombin (unknown origin) at 1 uM relative to control
[7] = target: Calpain1/2 (Homo sapiens) (UniProt P17655+P07384); experiment: Inhibition of calpain (unknown origin) at 100 nM relative to control; assay type: protein assay
Caspase-7 (Homo sapiens) = Caspase-7 (Homo sapiens) (UniProt P55210); experiment: Inhibition of caspase-7 (unknown origin) at 10 uM
Caspase-9 (Homo sapiens) = Caspase-9 (Homo sapiens) (UniProt P55211); experiment: Inhibition of caspase-9 (unknown origin) at 10 uM
[8] = Half life in mouse plasma; assay type: ADME, cell-free
[9] = Drug uptake in iv dosed mouse plasma by LC-MS/MS analysis; assay type: ADME, organism-based; settings: in vivo
[10] = target: T1, Cathepsin K (Homo sapiens); experiment: Inhibition of cathepsin K (unknown origin) at 10 uM relative to control
[11] = target: T2, Cathepsin L2 (Homo sapiens) (UniProt O60911); experiment: Inhibition of cathepsin V (unknown origin) at 1 uM relative to control
T2 sequence (whole entry): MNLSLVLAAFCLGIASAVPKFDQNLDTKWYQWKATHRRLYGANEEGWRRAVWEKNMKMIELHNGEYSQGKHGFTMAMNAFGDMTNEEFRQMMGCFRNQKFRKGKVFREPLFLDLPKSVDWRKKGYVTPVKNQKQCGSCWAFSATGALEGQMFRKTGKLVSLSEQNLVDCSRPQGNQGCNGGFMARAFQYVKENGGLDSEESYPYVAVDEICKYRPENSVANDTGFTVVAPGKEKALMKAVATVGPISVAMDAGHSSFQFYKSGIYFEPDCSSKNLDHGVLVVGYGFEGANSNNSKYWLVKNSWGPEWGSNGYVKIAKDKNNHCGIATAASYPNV

[12] = target: T2, Cathepsin L2 (Homo sapiens); experiment: Inhibition of cathepsin V (unknown origin) at 10 uM relative to control
Caspase-3 (Homo sapiens) = Caspase-3 (Homo sapiens) (UniProt P42574); experiment: Inhibition of caspase-3 (unknown origin) at 10 uM
Chain of Caspase-3 (Homo sapiens) (P42574 29-175 limits assumed): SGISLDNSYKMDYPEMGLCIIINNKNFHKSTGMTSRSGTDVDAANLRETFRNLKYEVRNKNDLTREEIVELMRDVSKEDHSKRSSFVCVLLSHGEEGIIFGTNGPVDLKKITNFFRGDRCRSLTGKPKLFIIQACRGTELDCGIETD
Chain of Caspase-3 (Homo sapiens) (P42574 176-277 limits assumed): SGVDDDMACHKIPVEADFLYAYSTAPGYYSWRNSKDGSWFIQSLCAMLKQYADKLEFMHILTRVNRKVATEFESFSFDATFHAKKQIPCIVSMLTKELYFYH

Chain of Caspase-2 (Homo sapiens) (P42575 170-325 limits assumed): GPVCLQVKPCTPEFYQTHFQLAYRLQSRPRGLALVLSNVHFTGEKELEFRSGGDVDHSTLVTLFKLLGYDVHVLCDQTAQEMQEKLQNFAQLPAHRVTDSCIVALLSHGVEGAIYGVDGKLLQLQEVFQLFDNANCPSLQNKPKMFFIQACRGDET
Chain of Caspase-2 (Homo sapiens) (P42575 334-452 limits assumed): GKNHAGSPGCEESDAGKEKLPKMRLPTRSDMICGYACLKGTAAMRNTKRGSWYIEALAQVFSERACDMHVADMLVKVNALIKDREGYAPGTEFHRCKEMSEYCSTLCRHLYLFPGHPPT
Chain of Caspase-7 (Homo sapiens) (P55210 24-198 limits assumed): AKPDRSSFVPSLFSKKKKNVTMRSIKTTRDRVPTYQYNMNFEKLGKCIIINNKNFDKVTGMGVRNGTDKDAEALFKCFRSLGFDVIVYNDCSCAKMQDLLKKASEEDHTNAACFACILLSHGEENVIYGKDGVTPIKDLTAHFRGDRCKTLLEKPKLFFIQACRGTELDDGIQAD
Chain of Caspase-7 (Homo sapiens) (P55210 207-303 limits assumed): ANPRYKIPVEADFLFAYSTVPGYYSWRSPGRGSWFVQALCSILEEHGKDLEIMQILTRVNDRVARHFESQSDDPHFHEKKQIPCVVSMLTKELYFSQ
Chain of Caspase-9 (Homo sapiens) (P55211 1-315 limits assumed): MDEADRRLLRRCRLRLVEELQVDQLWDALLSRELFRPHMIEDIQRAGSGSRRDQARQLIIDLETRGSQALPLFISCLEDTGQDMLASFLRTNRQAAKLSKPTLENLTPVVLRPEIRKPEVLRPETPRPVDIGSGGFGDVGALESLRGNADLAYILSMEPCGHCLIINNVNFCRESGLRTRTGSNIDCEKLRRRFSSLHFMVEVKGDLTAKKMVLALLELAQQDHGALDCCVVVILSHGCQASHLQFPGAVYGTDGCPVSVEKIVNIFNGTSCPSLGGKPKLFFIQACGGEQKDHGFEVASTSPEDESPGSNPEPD
Chain of Caspase-9 (Homo sapiens) (P55211 331-416 limits assumed): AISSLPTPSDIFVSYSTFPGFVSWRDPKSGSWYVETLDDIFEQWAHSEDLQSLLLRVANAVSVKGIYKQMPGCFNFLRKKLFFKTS
Chain of Kallikrein-2 (Homo sapiens) (P20151 whole entry): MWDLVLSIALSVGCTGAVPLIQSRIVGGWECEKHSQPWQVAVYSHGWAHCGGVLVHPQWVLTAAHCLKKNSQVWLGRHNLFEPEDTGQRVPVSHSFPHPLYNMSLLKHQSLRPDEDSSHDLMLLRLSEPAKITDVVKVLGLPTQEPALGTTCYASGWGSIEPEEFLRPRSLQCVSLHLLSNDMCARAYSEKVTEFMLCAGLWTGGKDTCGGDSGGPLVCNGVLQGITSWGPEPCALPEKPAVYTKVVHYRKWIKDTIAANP
Chain of Calpain1/2 (Homo sapiens) (P07384 whole entry, looked up): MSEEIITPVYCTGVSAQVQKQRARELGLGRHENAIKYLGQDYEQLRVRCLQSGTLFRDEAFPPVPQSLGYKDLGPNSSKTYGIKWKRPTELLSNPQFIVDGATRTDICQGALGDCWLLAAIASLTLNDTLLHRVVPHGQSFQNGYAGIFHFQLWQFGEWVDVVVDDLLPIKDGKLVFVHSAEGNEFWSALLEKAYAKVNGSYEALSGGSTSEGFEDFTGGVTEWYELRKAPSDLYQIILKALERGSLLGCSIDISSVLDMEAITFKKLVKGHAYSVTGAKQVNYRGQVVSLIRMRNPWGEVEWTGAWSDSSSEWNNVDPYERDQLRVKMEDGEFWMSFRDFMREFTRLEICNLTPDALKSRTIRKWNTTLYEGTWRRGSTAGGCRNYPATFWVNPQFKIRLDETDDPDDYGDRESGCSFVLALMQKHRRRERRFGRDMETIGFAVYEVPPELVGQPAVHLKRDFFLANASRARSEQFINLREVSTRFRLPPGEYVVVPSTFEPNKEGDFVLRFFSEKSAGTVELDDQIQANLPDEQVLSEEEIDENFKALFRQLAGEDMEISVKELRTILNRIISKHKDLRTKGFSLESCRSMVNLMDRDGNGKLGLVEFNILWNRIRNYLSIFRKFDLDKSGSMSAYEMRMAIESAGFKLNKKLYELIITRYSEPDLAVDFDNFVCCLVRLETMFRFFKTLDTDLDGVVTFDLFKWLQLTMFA
Chain of Calpain1/2 (Homo sapiens) (P17655 whole entry, looked up): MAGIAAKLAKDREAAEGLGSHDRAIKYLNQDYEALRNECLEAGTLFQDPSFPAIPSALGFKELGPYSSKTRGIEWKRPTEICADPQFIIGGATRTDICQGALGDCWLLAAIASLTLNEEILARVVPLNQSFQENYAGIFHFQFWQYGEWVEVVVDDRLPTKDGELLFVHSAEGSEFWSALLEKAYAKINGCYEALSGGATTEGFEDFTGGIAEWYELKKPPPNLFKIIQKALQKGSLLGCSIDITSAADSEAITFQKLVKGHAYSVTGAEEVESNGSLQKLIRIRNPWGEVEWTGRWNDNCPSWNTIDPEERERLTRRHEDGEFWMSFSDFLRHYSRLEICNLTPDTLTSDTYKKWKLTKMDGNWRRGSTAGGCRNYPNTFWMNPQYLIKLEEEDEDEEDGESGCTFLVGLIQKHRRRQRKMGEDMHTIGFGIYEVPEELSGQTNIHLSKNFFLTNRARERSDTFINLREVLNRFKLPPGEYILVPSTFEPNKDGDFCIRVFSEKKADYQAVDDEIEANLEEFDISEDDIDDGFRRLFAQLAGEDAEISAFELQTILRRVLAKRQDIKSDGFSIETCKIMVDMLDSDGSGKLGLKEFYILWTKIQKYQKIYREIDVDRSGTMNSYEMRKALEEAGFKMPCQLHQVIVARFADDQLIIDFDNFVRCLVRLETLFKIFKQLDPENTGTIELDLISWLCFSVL
Chain of Legumain (Homo sapiens) (Q99538 whole entry): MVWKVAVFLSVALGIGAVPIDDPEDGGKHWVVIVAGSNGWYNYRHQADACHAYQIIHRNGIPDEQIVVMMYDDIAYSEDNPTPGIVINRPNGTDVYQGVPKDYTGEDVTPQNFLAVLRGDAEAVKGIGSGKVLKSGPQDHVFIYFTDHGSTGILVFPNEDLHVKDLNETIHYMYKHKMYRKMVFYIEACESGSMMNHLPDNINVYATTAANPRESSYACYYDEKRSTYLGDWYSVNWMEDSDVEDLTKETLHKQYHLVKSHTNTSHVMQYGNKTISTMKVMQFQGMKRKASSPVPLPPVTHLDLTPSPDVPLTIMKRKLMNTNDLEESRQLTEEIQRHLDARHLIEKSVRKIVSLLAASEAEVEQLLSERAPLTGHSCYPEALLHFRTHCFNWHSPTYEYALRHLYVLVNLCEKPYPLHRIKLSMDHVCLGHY

Compound: CC(C)[C@H](NC(=O)c1ccc(Br)cc1)C(=O)N1CCC[C@H]1C(=O)N[C@@H](CCCNC(=N)N)C(=O)CF
- inhibition [1]: 63.2%
- inhibition [2]: 14.8%
- Drug uptake [3]: Active
- inhibition (Legumain (Homo sapiens)): Active
- inhibition [4]: Active
- inhibition [5]: 99.6%
- inhibition (Caspase-2 (Homo sapiens)): Active
- inhibition [6]: 25.2%
- inhibition [7]: 23.6%
- inhibition (Caspase-7 (Homo sapiens)): Active
- inhibition (Caspase-9 (Homo sapiens)): Active
- t1/2 [8]: 4.3 h
- Drug uptake [9]: Active
- inhibition [10]: 98.7%
- inhibition [11]: 56.9%
- inhibition [12]: 89.4%
- inhibition (Caspase-3 (Homo sapiens)): Active

— ChEMBL document CHEMBL4340530, “Peptide-based covalent inhibitors of MALT1 paracaspase” (Bioorg Med Chem Lett, 2019)
